Test results reported in patent US11311533B2, “Opioid receptor antagonist conjugate and use thereof” (SHANGHAI HANMAI BIO-PHARMA CO., LTD., priority 2016, dated 2022).
Read-outs that look alike come from different tables or passages of the source.

Columns and labels:
[1] = test system: mice; test: Mouse hot plate analgesia experiment (antagonism of morphine analgesia, blood-brain barrier study); conditions: for Average Pain Threshold after Administration (s) Mean ± SD: 60 minutes after administration
Method: Six conjugates Na1021, Na1029, Na1045, Na1037, Na1041, and Na1049 were subjected to mouse hot plate analgesia experiments for four times, respectively. In each experiment, mice (JOINN Laboratories (Suzhou)) were randomly divided into four groups (eight per group): one blank control group, one morphine control group, and two other groups which were administered with morphine by gavage first, and then low dose and high dose of the conjugates were subcutaneously injected respectively. The mice were put on a hot plate (55±0.1) ° C. before administration, and the time was recorded immediately. The duration from the beginning on the hot plate to the first hind paw licking was recorded as the reaction time of heat-pain sensation (i.e., pain threshold, the unit is second (s)). The pain threshold was set as 100% analgesia if there was no hind paw licking in 60 seconds. It was recorded as 60 seconds when the time exceeded 60 seconds to prevent burn of foot. The mice were again put on a (55±0.1) ° C. hot plate 60 minutes after the administration of drug and the reaction time of heat-pain sensation was recorded. […] The value of the pain thresholds before and after administration was compared and the percentage of increase in pain threshold was calculated according to the following formula to determine the effect of drug on antagonizing morphine analgesia. Percentage of increase in pain threshold=[(average heat pain threshold after administration−average pain threshold before administration)/average pain threshold before administration]×100%

[2] = test system: mice; test: Anti-constipation study: antagonizing the antidiarrheal effect of loperamide hydrochloride (castor oil diarrhea); assay type: in vivo
Method: The anti-constipation study experiment was completed by using the test of antagonizing the antidiarrheal effect of loperamide hydrochloride. The specific experiment process was: the mice were divided into groups randomly, eight mice each group, wherein one group was administered with 0.5 mL of castor oil by gavage, one group was administered with 2 mg/kg loperamide hydrochloride and 0.5 mL of castor oil by gavage, and conjugate test groups were respectively administered with Na1021 (300 nmol/kg), Na1029 (300 nmol/kg), Na1033 (300 nmol/kg) and Na1045 (600 nmol/kg) by gavage first, and then with 2 mg/kg loperamide and 0.5 mL castor oil by gavage.
The mice were divided into groups randomly, eight mice each group, wherein one group was administered with 0.5 mL of castor oil by gavage, one group was administered with 2 mg/kg loperamide and 0.5 mL castor oil by gavage, other groups were respectively administered with different doses of conjugate Na1029 first, then with 2 mg/kg loperamide hydrochloride and 0.5 mL castor oil by gavage.

[3] = target: T1, OPRM1 (Mμ opioid receptor gene) receptor (Homo sapiens, UniProt P35372); test: cell-based
Method: (§1) Cell suspension was inoculated into a 384-well microplate at a density of 15,000 cells per well, and cultured in a 37° C./5% CO2 incubator for at least 18 hours before experiment.
(§2) Before the test, the conjugates to be tested was diluted with HBSS buffer (containing 20 mM HEPES) and prepared as 5× solution with a concentration five times of the test solution. […] The concentration of the corresponding control DMSO is 0.1%.
(§3) The protocol for preparing agonist detection: cells were inoculated into 384-well microplates, 20 μl of cell suspension per well (containing 15,000 cells); the plate was placed in 37° C./5% CO2 incubator to continue the culture; cells were taken out after 18 hours, and dye was added, 20 μl per well; the plate was incubated in 37° C./5% CO2 incubator for 1 hour and equilibrated at room temperature for 15 minutes; and 10 μl of 5× test solution of agonist was added to each well for RFU value detection.
(§4) The protocol for preparing inhibitor detection: cells were inoculated into 384-well microplates, 20 μl of cell suspension per well (containing 15,000 cells); the plate was placed in 37° C./5% CO2 incubator to continue the culture; cells were taken out after 18 hours; for the inhibitor detection, 20 μl of dye was added to the plate, and then 10 μl of prepared conjugate solution was added; the plate was incubated in 37° C./5% CO2 for 1 hour and equilibrate at room temperature for 15 minutes; 12.5 μl of 5× EC80 positive agonist was added for RFU value detection.
(§5) The 384-well microplate containing the conjugate solution (5× test concentration), cell plate and pipette tip box were placed in FLIPR (Molecule Devices), and the agonist detection program was run. The overall detection time of the instrument was 120 seconds. 10 μl of agonist was automatically added to the plate at the 21st second. […] (Molecule Devices), and the inhibitor detection program was run. The overall detection time of the instrument was 120 seconds. 12.5 μl of positive agonist was automatically added to the plate at the 21st second.

[4] = target: T1, OPRM1 (Mμ opioid receptor gene) receptor
Method: as §1, §2, §3, §4, §5

T1 sequence (P35372 whole entry): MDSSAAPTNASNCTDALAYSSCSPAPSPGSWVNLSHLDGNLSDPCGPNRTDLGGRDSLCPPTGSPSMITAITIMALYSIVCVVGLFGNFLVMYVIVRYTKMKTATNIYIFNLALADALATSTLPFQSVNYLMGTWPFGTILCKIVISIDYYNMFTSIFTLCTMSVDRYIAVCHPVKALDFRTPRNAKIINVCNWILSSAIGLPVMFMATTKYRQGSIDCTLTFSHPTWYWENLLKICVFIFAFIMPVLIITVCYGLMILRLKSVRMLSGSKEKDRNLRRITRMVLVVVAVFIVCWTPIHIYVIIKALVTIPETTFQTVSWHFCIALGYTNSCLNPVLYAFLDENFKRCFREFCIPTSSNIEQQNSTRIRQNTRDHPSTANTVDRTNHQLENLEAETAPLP

SMILES | Average Pain Threshold before Administration (s) Mean ± SD ([1]; 3.66 μmol/kg + Morphine group) | Percentage of Increase in Pain Threshold ([1]; 3.66 μmol/kg + morphine) | Average Pain Threshold after Administration (s) Mean ± SD ([1]; 3.66 μmol/kg subcutaneous + Morphine by gavage) | Average Pain Threshold before Administration (s) Mean ± SD ([1]; 18.28 μmol/kg + Morphine group) | Percentage of Increase in Pain Threshold ([1]; 18.28 μmol/kg + morphine) | Average Pain Threshold after Administration (s) Mean ± SD ([1]; 18.28 μmol/kg subcutaneous + Morphine by gavage) | Passage through the blood-brain barrier (concluded from antagonism of the analgesic effect of morphine) ([1]; mouse hot plate, conjugate subcutaneous after morphine by gavage) | Antagonism of the antidiarrheal effect of loperamide hydrochloride compared with the model control group ([2]; Example 9, dose-dependent) | Total Number of Diarrhea Times Six Hours after Administration ([2]; Table 10: 300 nmol/kg by gavage + Loperamide Hydrochloride + Castor Oil) | Total Number of Diarrhea Times Six Hours after Administration ([2]; Table 10: 300 nmol/kg by gavage + Loperamide Hydrochloride + Castor Oil, listed as Na1029) | Total Number of Diarrhea Times Six Hours after Administration ([2]; Table 11: 10 μg/kg + Loperamide Hydrochloride + Castor Oil) | Total Number of Diarrhea Times Six Hours after Administration ([2]; Table 11: 30 μg/kg + Loperamide Hydrochloride + Castor Oil) | Total Number of Diarrhea Times Six Hours after Administration ([2]; Table 11: 100 μg/kg + Loperamide Hydrochloride + Castor Oil) | Total Number of Diarrhea Times Six Hours after Administration ([2]; Table 11: 500 μg/kg + Loperamide Hydrochloride + Castor Oil) | EC50 for antagonizing the antidiarrheal effect of loperamide hydrochloride ([2]; dose-response in mice, Table 11 and FIG. 1) | IC50 [3] | inhibition at 10 µM ([3]; OPRM1, read-out: Inhibition rate (%) of highest concentration (mean ± standard deviation) (N = 2)) | IC50 ([4]; CHO-K1/Gα15/OPRM1 cells, inhibitor detection against EC80 positive agonist, RFU) | Inhibition rate (%) of highest concentration (mean ± standard deviation) (N = 2) ([4]; highest concentration 10000 nM)
Oc1ccc2c3c1O[C@H]1[C@@H](OCCOCCOCCOCCOCCOCCOCCOCCO[C@H]4CC[C@@]5(O)[C@H]6Cc7ccc(O)c8c7[C@@]5(CCN6CC5CC5)[C@H]4O8)CC[C@@]4(O)[C@@H](C2)N(CC2CC2)CC[C@]314 [Nal029, PEG8-(6-α-naltrexol)2-ether] | 20.00 ± 5.71 s | 200.00% | 60.00 ± 0 s | 22.13 ± 7.26 s | 155.31% | 56.5 ± 9.90 s | cannot pass through the blood-brain barrier | significantly antagonize | 20.88 ± 5.82 | relatively high | 5.25 ± 7.42 | 6.50 ± 5.88 | 12.13 ± 5.67 | 18.25 ± 3.99 | ~0.086 mg/kg | 161 nM | 98 ± 3.09% |  | 
C=CCN1CCC23c4c5ccc(O)c4OC2C(OCCOCCOCCOCCOCCOCCOC)CCC3(O)C1C5 (stereo not drawn) [Nal046, mPEG6-(6-β-naloxol)-ether] |  |  |  |  |  |  |  |  |  |  |  |  |  |  |  |  |  | 3840 nM | 79.55 ± 5.73%
